pEC50, pKi: −log10 of the molar value.

Test [1] addresses T1, hEP3A (Homo sapiens, UniProt P43115).
T1 sequence (P43115 1-390): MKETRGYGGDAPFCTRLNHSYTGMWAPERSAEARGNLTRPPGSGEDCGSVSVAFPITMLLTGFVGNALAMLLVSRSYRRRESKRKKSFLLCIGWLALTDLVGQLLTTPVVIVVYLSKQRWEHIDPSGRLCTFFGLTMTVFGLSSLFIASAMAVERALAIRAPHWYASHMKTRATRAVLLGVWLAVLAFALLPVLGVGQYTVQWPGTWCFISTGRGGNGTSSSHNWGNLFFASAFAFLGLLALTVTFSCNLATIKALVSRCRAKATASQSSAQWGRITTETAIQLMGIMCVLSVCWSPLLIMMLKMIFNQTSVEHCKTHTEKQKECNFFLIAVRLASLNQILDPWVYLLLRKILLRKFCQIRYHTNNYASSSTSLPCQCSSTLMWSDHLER
Kind of test: Other receptors functional assay, hEP3A. It is filed as cell-based. From the text: (§1) U.S. patent application Ser. No. 11/553,143, filed on Oct. 26, 2006, incorporated by reference herein, describes the methods used to obtain the in vitro data in the table below.

The target of test [2] is T2, EP4 (Homo sapiens, UniProt P35408). The experiment in a line: EP4 binding (KI).
T2 sequence (P35408 whole entry): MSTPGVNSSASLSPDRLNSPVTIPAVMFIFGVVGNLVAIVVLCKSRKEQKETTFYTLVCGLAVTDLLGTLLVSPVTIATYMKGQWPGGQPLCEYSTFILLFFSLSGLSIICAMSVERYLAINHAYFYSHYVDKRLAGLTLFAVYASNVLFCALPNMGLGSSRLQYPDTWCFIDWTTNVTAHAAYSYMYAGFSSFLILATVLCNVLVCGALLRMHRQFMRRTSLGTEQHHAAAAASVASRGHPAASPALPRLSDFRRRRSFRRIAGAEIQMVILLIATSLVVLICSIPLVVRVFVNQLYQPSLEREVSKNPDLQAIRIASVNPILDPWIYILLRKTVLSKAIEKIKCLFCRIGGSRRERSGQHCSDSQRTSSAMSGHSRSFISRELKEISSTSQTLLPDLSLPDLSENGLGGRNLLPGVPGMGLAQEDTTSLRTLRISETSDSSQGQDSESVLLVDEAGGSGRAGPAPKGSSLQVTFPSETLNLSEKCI
Source text: as §1

The target of test [3] is T3, EP2 (Homo sapiens, UniProt P43116). Kind of test: EP2 flipr functional assay. The class given is cell-based.
T3 sequence (P43116 whole entry): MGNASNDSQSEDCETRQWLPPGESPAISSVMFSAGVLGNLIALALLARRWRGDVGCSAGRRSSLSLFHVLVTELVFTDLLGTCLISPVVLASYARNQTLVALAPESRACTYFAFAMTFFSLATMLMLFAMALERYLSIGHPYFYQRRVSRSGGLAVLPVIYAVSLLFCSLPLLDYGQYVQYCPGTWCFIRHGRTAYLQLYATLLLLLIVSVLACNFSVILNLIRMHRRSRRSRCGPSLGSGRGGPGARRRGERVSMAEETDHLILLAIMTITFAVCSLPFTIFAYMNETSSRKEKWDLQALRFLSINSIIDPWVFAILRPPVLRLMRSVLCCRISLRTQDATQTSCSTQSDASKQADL
Source text: as §1

Test [4] has as its target T3, EP2. The experiment in a line: EP2 binding (Ki).
Source text: as §1

In test [5] the target is T3, EP2. The experiment in a line: EP2 cAMP assay. It is filed as cell-based.
Source text: as §1
On the technique in general: cAMP levels reflect the balance of adenylyl cyclase and phosphodiesterase activity.

The target in test [6] is T2, EP4. The experiment in a line: EP4 flipr functional assay. The class given is cell-based.
Source text: as §1

In turn, `O=C(O)c1ccc(COC[C@H]2CCC(=O)N2Cc2cc(Cl)cc(Cl)c2)s1` [(R)-5-(((1-(3,5-dichlorobenzyl)-5-oxopyrrolidin-2-yl)methoxy)methyl)thiophene-2-carboxylic acid] had an EC50 in test [1] of 6450 nM. Besides, the negative-log Ki (pKi) in test [2] was 5.14; in test [4], 5.59. In addition, the values for the pEC50 in test [3], in test [5] and in test [6] were 5.07, 7.09 and less than 5.00, respectively.

For orientation: EC50 means the concentration needed to bring the measured effect to its halfway point. The low end stands for greater potency, the high end for weaker potency. By pKi is commonly meant −log10 of the Ki, conventionally taken in molar units. Read a high pKi as a low Ki. Usually pEC50 stands for the negative decadic logarithm of the EC50, by convention in mol/L. A higher pEC50 goes with a low EC50.

These data come from patent publication US8362054B2, “Therapeutic substituted lactams” (Allergan, Inc., priority 2007, dated 2013).
